The values that follow come from ChEMBL document CHEMBL3714749, “Quinoxaline derivatives as gpr6 modulators” (2014).

In general, inhibition in vivo refers to the drop in the measured response relative to a control, in per cent. In general, IC50 refers to the concentration that inhibits the measured activity by half.

Sequence of G-protein coupled receptor 6 (P46095 whole entry): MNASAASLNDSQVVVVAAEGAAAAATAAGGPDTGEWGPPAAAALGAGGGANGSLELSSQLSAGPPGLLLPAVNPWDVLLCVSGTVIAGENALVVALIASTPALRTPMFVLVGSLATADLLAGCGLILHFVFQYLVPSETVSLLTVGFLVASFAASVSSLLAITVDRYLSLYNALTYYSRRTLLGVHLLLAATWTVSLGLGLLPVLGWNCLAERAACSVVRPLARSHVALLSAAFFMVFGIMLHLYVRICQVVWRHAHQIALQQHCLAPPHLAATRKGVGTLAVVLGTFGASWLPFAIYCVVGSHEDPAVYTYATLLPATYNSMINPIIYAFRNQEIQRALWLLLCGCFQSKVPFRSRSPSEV

The test system of one assay is Rattus norvegicus. As to the kind of experiment: Reversal of haloperidol-induced catalepsy in Sprague-Dawley rat at 10 mg/kg, sc after 120 mins relative to control. The following applies: 2 h. The assay is classed as functional.
Take `N#Cc1ccc2nc(NC3CC3)c(N3CCC(Cc4ccc(F)cc4F)CC3)nc2c1`: the inhibition in vivo at 10 mg/kg was found to be 25.1%.

The subject of the next assay is Rattus norvegicus. The assay is described as follows: Reversal of haloperidol-induced catalepsy in Sprague-Dawley rat at 10 mg/kg, sc after 30 mins relative to control. The assay is classed as functional. The settings on record: 0.5 h.
As for `N#Cc1ccc2nc(NC3CC3)c(N3CCC(Cc4ccc(F)cc4F)CC3)nc2c1`, the inhibition in vivo at 10 mg/kg amounted to 36.9%.

The next assay addresses G-protein coupled receptor 6 (Homo sapiens, UniProt P46095). The assay is described as follows: Activity at GPR6 (unknown origin) expressed in CHOK1 cells assessed as inhibition of constitutive cAMP activity incubated for 45 mins by HTRF based cAMP detection assay. In kind it is functional, cell-based, CHO-K1.
Conditions: not given
On the technique in general: TR-FRET usually uses a lanthanide donor and a delayed reading to cut background.
For `CSc1ccc(OC2CCN(c3nc4cnncc4nc3NC3CC3)CC2)c(F)c1`, the concentration for half-maximal inhibition (IC50) amounted to 14 nM.
Turning to `COc1ccc(OC2CCN(c3nc4ccncc4nc3NC3CC3)CC2)c(F)c1`, the IC50 was found to be 44 nM.
On the same count and under the same terms, the figure for `O=C(c1ccc(C(F)F)cc1)N1CCN(c2nc3cnccc3nc2NC2CC2)CC1` is 2650 nM.
The same measure, in the same setting: the figure for `CN(C)C(=O)c1cc2nc(NC3CC3)c(N3CCC([C@@H](F)c4ccc(F)cc4F)CC3)nc2cn1` is 8 nM; for `Cc1nccc2nc(NC3CC3)c(N3CCC(Cn4ccc(F)cc4=O)CC3)nc12` it is 380 nM; for `CCNc1nc2cnccc2nc1N1CCC(Oc2ccc(OC)cc2F)CC1` it is 39 nM.
Consider `N#Cc1ccc(F)c(C(=O)C2CCN(c3nc4cnccc4nc3NC3CC3)CC2)c1`, for which the 50% inhibitory concentration (IC50) is 69 nM.
As to `Cc1cc2nc(NC3CC3)c(N3CCC(Cn4cc(Cl)ccc4=O)CC3)nc2cn1`, the IC50 was determined as 770 nM.
The same measure, in the same setting: the figure for `N#Cc1ccc2nc(N3CCC(C(F)c4ccc(F)cc4F)CC3)c(NC3CC3)nc2c1` (stereo not drawn) is 29 nM; for `CN(C)C(=O)c1cc2nc(NC3CC3)c(N3CCC(Oc4ccc(F)cc4F)CC3)nc2cn1` it is 5 nM; for `CS(=O)(=O)c1ccc(C(=O)N2CCN(c3nc4ccccc4nc3NC3CC3)CC2)cc1` it is 530 nM.
Still for that read-out and setting: for `O=C(c1ccc(Cl)c(Cl)c1)N1CCN(c2nc3ccccc3nc2NC2CC2)CC1` the value was 79600 nM; for `N#Cc1ccccc1OC1CCN(c2nc3cnccc3nc2NC2CC2)CC1`, 2880 nM.
On to `Cc1cc2nc(NC3CC3)c(N3CCC(C(F)c4ccc(F)cc4F)CC3)nc2cn1` (stereo not drawn), for which the half-maximal inhibitory concentration (IC50) stood at 7 nM.
Still for that read-out and setting: for `O=C(c1cc(Cl)ccc1Cl)N1CCN(c2nc3ccccc3nc2NC2CC2)CC1` the value was 6640 nM.
As for `N#Cc1ccc2nc(NC3CC3)c(N3CCC(Cc4ccc(F)cc4F)CC3)nc2c1`, the IC50 was 64 nM.
Same read-out and setting: for `CC(C)Nc1cc(Cl)cc(C(=O)C2CCN(c3nc4ccc(C#N)cc4nc3NC(C)C)CC2)c1` the value was 276 nM; for `COc1ccc(CN2CCN(c3nc4c(C#N)nccc4nc3NC3CC3)CC2)c(F)c1`, 88 nM.
Same read-out and setting: the figure for `Fc1ccc(Cl)cc1C(F)(F)C1CCN(c2nc3cnccc3nc2NC2CC2)CC1` is 46 nM.
The same measure, in the same setting: the figure for `CCOc1ccc(OC2CCN(c3nc4cnccc4nc3NC3CC3)CC2)cc1` is 1020 nM; for `Fc1ccc(CC2CCN(c3nc4cnc(Cl)cc4nc3NC3CC3)CC2)c(F)c1` it is 31 nM.
With `CC(O)c1ccc(OC2CCN(c3nc4cnccc4nc3NC3CC3)CC2)cc1` (stereo not drawn), the IC50 was found to be 6040 nM.
On the same count and under the same terms, the figure for `COCCNc1nc2ccc(C#N)cc2nc1N1CCC(C(F)c2ccc(F)cc2F)CC1` (stereo not drawn) is 340 nM.
Same read-out and setting: for `COCCNc1nc2ccncc2nc1N1CCC(Oc2ccc(F)cc2F)CC1` the value was 670 nM; for `Cc1nccc2nc(NC3CC3)c(N3CCC(C(F)(F)c4cc(F)ccc4F)CC3)nc12`, 45 nM.
Still for that read-out and setting: the figure for `COc1cccc(CN2CCN(c3nc4cnncc4nc3NC(C)C)CC2)c1` is 44 nM; for `Fc1ccc(F)c(CN2CCN(c3nc4ccncc4nc3NC3CC3)CC2)c1` it is 140 nM.
Regarding `CC(C)Nc1nc2cc(C#N)ncc2nc1N1CCC(C(=O)c2cc(F)cc(F)c2)CC1`, the IC50 turned out to be 28 nM.
As for `CC(C)Nc1nc2ccc(C#N)cc2nc1N1CCC(C(F)c2cc(F)ccc2F)CC1` (stereo not drawn), the half-inhibitory concentration (IC50) was determined as 98 nM.
On the same count and under the same terms, the figure for `CC(C)Nc1nc2cc(C(=O)N(C)C)ncc2nc1N1CCC(C(=O)c2cc(F)cc(F)c2)CC1` is 16 nM; for `N#Cc1ccc(OC2CCN(c3nc4cnccc4nc3NC3CC3)CC2)cc1` it is 1940 nM.
Still for that read-out and setting: the figure for `COCCNc1nc2ccncc2nc1N1CCC(Cc2ccc(F)cc2F)CC1` is 30 nM; for `N#Cc1cc2nc(NC3CC3)c(N3CCC([C@H](F)c4ccc(F)cc4F)CC3)nc2cn1` it is 11 nM; for `CC(C)Nc1nc2cnncc2nc1N1CCC(Oc2ccc(C#N)cc2F)CC1` it is 72 nM.
On the same count and under the same terms, the figure for `Cc1ccccc1C(=O)C1CCN(c2nc3cnccc3nc2NC2CC2)CC1` is 5780 nM; for `CC(C)Nc1nc2cnncc2nc1N1CCC(Oc2ccc(OCF)cc2F)CC1` it is 8 nM; for `FC(F)Oc1ccc(Cl)cc1CN1CCN(c2nc3cnccc3nc2NC2CC2)CC1` it is 270 nM.
Consider `N#Cc1ccc2nc(NC3CC3)c(N3CCC(Cn4cc(Cl)ccc4=O)CC3)nc2c1`, for which the IC50 is 930 nM.
Still for that read-out and setting: the figure for `Fc1ccc(C(F)(F)C2CCN(c3nc4cnccc4nc3NC3CC3)CC2)c(F)c1` is 16 nM.
The same measure, in the same setting: the figure for `COc1cc2nc(NC3CC3)c(N3CCC(Cc4ccc(F)cc4F)CC3)nc2cn1` is 29 nM; for `Cc1cc2nc(NC3CC3)c(N3CCC(S(=O)(=O)c4ccc(F)cc4)CC3)nc2cn1` it is 93 nM.
